Measured values from patent US20250326708A1, “LONG-ACTING SPLEEN-TARGETING CATIONIC LIPID COMPOUND COMPRISING BENZENE RING STRUCTURE, COMPOSITION COMPRISING SAME, AND USE THEREOF” (Beijing Youcarekechuang Pharmaceutical Technology Co., Ltd., priority 2024, published 2025).

System: female BALB/C mice
Assay: Expression of delivered mRNA in mice in vivo (IVIS in vivo imaging)
Conditions: for Expression level of mRNA in vivo, times that of YK-904: vs YK-904; for Average radiation intensity, in vivo imaging: 10 μg Fluc-mRNA via tail vein; for Expression level of mRNA in vivo, times that of SM-102: vs SM-102; for Expression level of mRNA in vivo, times that of YK-501: vs YK-501; for Expression level of mRNA in vivo, times that of YK-506: vs YK-506; for Expression level of mRNA in vivo, times that of compound 7: vs compound 7
How it was run: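 Female BALB/c mice (4–6 weeks, 17–19 g) received LNPs carrying 10 μg Fluc-mRNA via tail vein. At 6 h, 24 h, 48 h and 7 d, imaging substrate was given i.p. and, after 5 min, average radiance was measured by IVIS Spectrum imaging.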

## CCCCCCCCCCCOC(=O)CCCN(CCCCCCC(=O)OCCC(CCCCCC)CCCCCC)CCNC(CO)(CO)CCc1ccc(CCCCCCCC)cc1 [YK-910, 3-hexylnonyl 7-((2-((1-hydroxy-2-(hydroxymethyl)-4-(4-octylphenyl)butan-2-yl)amino)ethyl) (4-oxo-4-(undecyloxy)butyl)amino) heptanoate]
6 h
  Expression level of mRNA in vivo, times that of YK-904: 12.03 times
  Average radiation intensity, in vivo imaging: 13425454
24 h
  Expression level of mRNA in vivo, times that of SM-102: 6.78 times
  Expression level of mRNA in vivo, times that of YK-501: 12.21 times
  Expression level of mRNA in vivo, times that of YK-506: 8.28 times
  Expression level of mRNA in vivo, times that of YK-904: 18.49 times
  Expression level of mRNA in vivo, times that of compound 7: 11.50 times
  Average radiation intensity, in vivo imaging: 2133322
48 h
  Expression level of mRNA in vivo, times that of YK-904: 23.07 times
  Average radiation intensity, in vivo imaging: 658643
7 d
  Expression level of mRNA in vivo, times that of SM-102: 9.24 times
  Expression level of mRNA in vivo, times that of YK-501: 15.15 times
  Expression level of mRNA in vivo, times that of YK-506: 2.49 times
  Expression level of mRNA in vivo, times that of YK-904: 26.32 times
  Expression level of mRNA in vivo, times that of compound 7: 10.03 times
  Average radiation intensity, in vivo imaging: 85363
